Results: patent US20250213563A1, “SUBSTITUTED PYRIMIDIN-4(3H)-ONES FOR USE IN TREATING CANCER” (NAVIRE PHARMA, INC., priority 2021, published 2025)

Experiments:
[1] = test system: panel of 419 human kinases; test: KINOMEscan competition binding panel; settings: 1 μM; 419 kinases tested
Method: Activity of Compound (10b) (1 μM) was assessed against a panel of 419 human kinases (including a set of disease-relevant mutant variants). Assays were conducted using the KINOMEscan™ platform from DiscoverX which measures compound interaction with kinases using active site-directed competition binding assays. Displacement of ligand binding to the kinase by <35% of the control value is considered significant. Of the 419 kinases tested, only 4 kinases reached this level of displacement: Protein kinase C eta (PRKCH), 34% control; Large tumor suppressor kinase 1 (LATS1), 32% control; General control nonderepressible 2 kinase (GCN2), 21% control; and Hematopoietic Progenitor Kinase 1 (HPK1), 4.4% control.

[2] = biological target: T1, full-length human SHP2 wild-type enzyme (Homo sapiens, UniProt Q06124); test: SHP2 enzymatic assay (DiFMUP), full-length enzyme; format: biochemical; settings: in presence of 1 μM bistyrosylphorphorylated peptide; mean±SD, 34 independent test occasions
T1 construct: full-length human SHP2 (amino acid 1-597); 6xHis (TEV site) (N, cleaved yes); made in house; host or cells: E. coli BL21 (DE3)
T1 sequence (Q06124 1-597 isoform Q06124-1): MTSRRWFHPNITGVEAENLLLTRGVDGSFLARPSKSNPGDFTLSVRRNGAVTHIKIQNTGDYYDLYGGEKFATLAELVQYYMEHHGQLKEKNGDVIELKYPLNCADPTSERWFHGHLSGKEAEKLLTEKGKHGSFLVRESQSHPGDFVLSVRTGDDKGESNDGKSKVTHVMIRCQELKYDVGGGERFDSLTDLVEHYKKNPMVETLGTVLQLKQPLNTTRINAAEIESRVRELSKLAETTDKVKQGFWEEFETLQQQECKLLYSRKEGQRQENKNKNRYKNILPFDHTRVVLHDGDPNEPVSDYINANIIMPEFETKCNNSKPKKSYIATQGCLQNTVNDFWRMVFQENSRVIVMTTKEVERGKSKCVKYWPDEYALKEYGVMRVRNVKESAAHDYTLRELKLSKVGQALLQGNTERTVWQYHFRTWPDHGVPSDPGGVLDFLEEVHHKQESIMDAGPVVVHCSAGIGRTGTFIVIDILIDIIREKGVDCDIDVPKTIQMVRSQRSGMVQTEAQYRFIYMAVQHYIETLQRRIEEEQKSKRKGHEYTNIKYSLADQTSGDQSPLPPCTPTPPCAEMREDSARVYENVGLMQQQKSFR
Method: Protein purification: The recombinant DNA for full-length human SHP2 (amino acid 1-597) or the phosphatase domain of human SHP2 (amino acid Ala237-Ile529) was cloned into a pET30 vector (Sigma #69909-3), which was modified to contain a TEV protease site after the N-terminal 6×His tag. The expression vector was transformed into E. coli BL21 (DE3) (NEB #C2527H). The protein was expressed and purified by the following procedure. Bacterial cells from a 50 mL overnight culture were inoculated in 6 L of terrific broth media. Once the E. coli culture reached an OD600 of 0.7, the temperature was lowered to 18° C. and recombinant protein expression was induced by the addition of 0.5 mM IPTG. After overnight incubation, the cells were harvested by centrifugation at […] for 45 min in a Sorvall Lynx 6000 (Thermo Fisher) centrifuge with F9-6×1000 LEX rotor. The cell pellets were stored at −80° C. until purification. […] The final product was 98% pure as determined by SDS-PAGE. The concentration of SHP2 protein was determined from the absorbance at 280 nm wavelength, using the calculated molar extinction coefficient for SHP2 protein of 72770 M^−1 cm^−1.
SHP2 enzymatic assay: Phosphatase activity of full-length human SHP2 wild-type enzyme or SHP2 phosphatase domain was measured using fluorogenic 6,8-difluoro-4-methylumbelliferyl phosphate (DiFMUP; Molecular Probes #D6567) as the substrate. […]

`Cc1c(N2CCC3(CC2)CO[C@@H](C)[C@H]3N)nc(C)n(-c2cccc(Cl)c2Cl)c1=O` (atropisomer, axis not shown; (Ra)) [Compound (10b), 6-((3S,4S)-4-amino-3-methyl-2-oxa-8-azaspiro[4.5]decan-8-yl)-3-(Ra)-(2,3-dichlorophenyl)-2,5-dimethylpyrimidin-4(3H)-one] was tested, and the “number of kinases with displacement <35% of control” value [1] was 4 and the IC50 [2] was 13.2 ± 10.6 nM.
